In US20220288058A1, “COMBINATION THERAPY USING A MALT1 INHIBITOR AND A BTK INHIBITOR” (Janssen Pharmaceutica NV, priority 2021, published 2022):

Key:
BTK protein = target: T1, BTK protein (Homo sapiens, UniProt Q06187); assay: Study 1: BTK occupancy assay (ELISA) in OCI-LY10 DLBCL tumor lysates of NSG mice; type: in vivo, mouse
T1 construct: measuring the amount of free BTK protein in OCI-LY10 DLBCL tumor lysates of mice treated with various dosing concentrations of Compound B; endogenous in cells; host or cells: OCI-LY10 ABC-DLBCL xenograft tumours grown SC in female NSG mice (tumour lysates)
T1 sequence (Q06187 whole entry): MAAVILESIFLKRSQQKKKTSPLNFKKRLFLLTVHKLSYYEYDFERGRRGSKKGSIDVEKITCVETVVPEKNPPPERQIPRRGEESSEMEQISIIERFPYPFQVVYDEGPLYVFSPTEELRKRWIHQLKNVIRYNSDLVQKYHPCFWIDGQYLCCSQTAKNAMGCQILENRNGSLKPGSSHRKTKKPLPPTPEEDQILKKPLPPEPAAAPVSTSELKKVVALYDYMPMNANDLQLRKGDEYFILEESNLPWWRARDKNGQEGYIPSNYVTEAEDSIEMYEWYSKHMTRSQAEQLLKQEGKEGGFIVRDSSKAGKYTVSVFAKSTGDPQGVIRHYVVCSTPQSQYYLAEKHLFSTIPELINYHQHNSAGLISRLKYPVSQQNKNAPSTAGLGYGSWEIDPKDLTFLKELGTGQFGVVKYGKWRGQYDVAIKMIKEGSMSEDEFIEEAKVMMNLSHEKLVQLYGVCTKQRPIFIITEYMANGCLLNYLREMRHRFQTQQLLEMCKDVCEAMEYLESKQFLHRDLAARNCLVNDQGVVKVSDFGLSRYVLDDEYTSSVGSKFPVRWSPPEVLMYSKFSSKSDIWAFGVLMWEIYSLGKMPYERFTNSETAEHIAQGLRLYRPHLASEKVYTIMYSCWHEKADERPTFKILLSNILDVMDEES
Description: (§1) In Study 1, 5×10^6 OCI-LY10 cells in PBS containing 50% Matrigel™ were injected subcutaneously (SC) into the right hind flank of female NSG mice. Tumor growth was measured over time and once tumors reached volumes of approximately 525 mm^3, mice were randomized in groups of 15 and treated orally with a single dose of Compound B according to treatment schedule (see Table 4). Blood was collected serially by mandibular vein sampling from 5 animals per time point per group to determine circulating compound concentration and IL10 levels at 2, 4, 8, 12, 16, and 24 hours post single dose. Blood was harvested in EDTA and plasma was obtained via centrifugation at 3000 rpm for 10 minutes. In addition, tumor samples were harvested from 5 animals per timepoint per treatment group for BTK occupancy studies at 4, 12, and 24 hours post single dose.
Compound B is a covalent orally bioavailable inhibitor binding BTK irreversibly, allowing us to evaluate the duration of signaling shutdown and occupancy of BTK protein after compound administration considering compound binding to BTK as well as synthesis rate of new BTK protein. Target engagement was determined by measuring the amount of free BTK protein in OCI-LY10 DLBCL tumor lysates of mice treated with various dosing concentrations of Compound B using a BTK occupancy assay (ELISA assay format). A covalent BTK inhibitor probe, chemically linked to biotin (CNX-500 Probe), was incubated in PBS/BT (PBS+1% BSA+0.05% tween-20) with tumor lysate for 1 hour at 28° C. Incubated BTK standards and samples were transferred to a streptavidin-coated 96-well plates and mixed while shaking for 30 minutes at RT. The BTK-antibody was then added and incubated overnight at 4° C. After washing, goat anti-mouse-HRP was added and incubated for 1 hour at RT. The ELISA was developed with addition of tetramethyl benzidine (TMB) followed by sulfuric acid (stop solution) and read at optical density 450 nm on Envision device.

OCI-Ly3 = assay: Inhibition of DLBCL cancer cell proliferation (CellTiter-Glo), Compound A and Compound B mono and combination; type: cell-based; settings: monotherapy, highest concentration tested, 4 days
Description: (§2) Compound A and Compound B were used throughout the in vitro and cellular assessment of activity. All small molecules were prepared as 100% dimethyl sulfoxide (DMSO) stocks as indicated. A final concentration of 0.25% DMSO was used as a control. High Control=Cells+DMSO 0.25%.
(§3) A panel of 4 B-cell lymphoma lines was treated with different doses of both compounds. The following ABC-DLBCL cell lines were tested: OCI-Ly10; TMD8; OCI-Ly3; and HBL1. The cell lines were grown in 96-well plates and treated with a matrix of seven scalar concentrations of Compound A ([…]) and six scalar concentrations of Compound B ([…]) and all combinations thereof. This checkerboard design was repeated on up to four separate plates. The final concentration of DMSO was 0.25%. After an incubation of four days at 37° C. and 5% CO2, cell viability was determined by adding CellTiter-Glo®. Luminescence was read on an Envision device and readouts were used to calculate potential combination effects.
(§4) For the assessment of combination effects on DLBCL or MCL cancer cell proliferation, the observed combination effects were evaluated using the public available BIGL (Biochemically Intuitive Generalized Loewe Model) R package which measures the evidence in the data, in the presence of variability, against certain null models derived from the monotherapies. In first step, monotherapies were fitted with 4PL models with extra constraint of common baseline between two agents. When no activity was observed, a straight line was fitted through the monotherapy data. In a second step, hypothesis tests at 5% significance level were performed which basically contrast the observed readouts of the combination experiments with those predicted from the null model derived from the monotherapies where both HSA (Highest Single Agent) 17 and generalized Loewe18 were assessed for these studies.

TMD8 = assay: as above; type: cell-based; settings: monotherapy, highest concentration tested, 4 days
Description: as §2, §3, §4

human IL-10 = assay: Study 1: circulating human IL-10 cytokine serum levels in OCI-LY10 tumor bearing NSG mice (MSD assay); type: in vivo, mouse
Description: as §1
NF-κB signaling regulates the secretion of multiple cytokines, including interleukin-10 (IL-10). Both BTK and MALT1 inhibition effect NF-kB signaling resulting in decreased IL-10 transcription and secretion. Circulating human IL-10 cytokine levels were measured in the serum of OCI-LY10 ABC-DLBCL tumor bearing NSG mice, using a Mesoscale Discovery assay (MSD). 25 μL of mouse serum was transferred to an MSD plate (V-Plex Proinflammation Panel 1 [human] kit) and incubated together with 25 μl diluent 2 (MSD; R51BB-3) for 2 hours at RT followed by a 2-hour incubation with IL-6/-10 antibody solution. Plates were read on a SECTOR imager.

[1] = system: NF-κB-driven cytokines: interleukin (IL)10, tumor necrosis factor α (TNF α), and IL 12p70; assay: Serum cytokine secretion in LY2298 tumor bearing mice; type: in vivo, mouse; settings: 1 day posttreatment, compared with vehicle
Description: Cytokine secretion from serum samples of LY2298 tumor bearing mice was measured following Compound A and Compound B treatment.

[2] = single dose as low as 30 mg/kg, effects lasting up to 24 hours

Which “BTK occupancy in tumor lysates” value (BTK protein; 1 mg/kg single dose) does the source give for `C=CC(=O)N[C@H]1CCC[C@H]1NC(=O)c1sc2nccc3c2c1NC(=O)N3c1cnc(CC(C)C)cc1C` (atropisomer, axis not shown) [Compound B, N-((1R,2S)-2-acrylamidocyclopentyl)-5-(S)-(6-isobutyl-4-methylpyridin-3-yl)-4-oxo-4,5-dihydro-3H-1-thia-3,5,8-triazaacenaphthylene-2-carboxamide] here?
Its value is “No BTK occupancy”.

What about the “BTK occupancy in tumor lysates” value (BTK protein; 3 mg/kg single dose) of the same compound?
The value was “No BTK occupancy”.

What about the “decrease in unoccupied (free) BTK in tumors” value (BTK protein; Compound B at 1, 3, 10, 30, or 100 mg/kg single dose, maximal at ≥ 30 mg/kg, sustained through 24 hours) of the same compound?
The value was “Dose-and time-dependent”.

What about the receptor occupancy at 10 mg/kg (BTK protein; OCI-Ly10, 4 hours after dosing) of the same compound?
The receptor occupancy at 10 mg/kg was 54%.

What about the receptor occupancy at 30 mg/kg (BTK protein; OCI-Ly10, 4 hours after dosing) of the same compound?
Its receptor occupancy at 30 mg/kg is 90%.

What about the receptor occupancy at 100 mg/kg (BTK protein; OCI-Ly10, 4 hours after dosing) of the same compound?
The receptor occupancy at 100 mg/kg was 95%.

And the receptor occupancy at 10 mg/kg (BTK protein; OCI-Ly10, 12 hours)?
Its receptor occupancy at 10 mg/kg is 71%.

And the receptor occupancy at 30 mg/kg (BTK protein; OCI-Ly10, 12 hours)?
The receptor occupancy at 30 mg/kg was 94%.

And the receptor occupancy at 100 mg/kg (BTK protein; OCI-Ly10, 12 hours)?
The receptor occupancy at 100 mg/kg was 96%.

And the receptor occupancy at 10 mg/kg (BTK protein; OCI-Ly10, 24 hours)?
Its receptor occupancy at 10 mg/kg is 70%.

And the receptor occupancy at 30 mg/kg (BTK protein; OCI-Ly10, 24 hours)?
Its receptor occupancy at 30 mg/kg is 91%.

And the receptor occupancy at 100 mg/kg (BTK protein; OCI-Ly10, 24 hours)?
The receptor occupancy at 100 mg/kg was 85%.

What about the “BTK occupancy in tumors” value (BTK protein; [2]) of the same compound?
The value was “complete BTK occupancy”.

And the proliferation inhibition (OCI-Ly3)?
The proliferation inhibition was “did not inhibit proliferation”.

What about the proliferation inhibition (TMD8) of the same compound?
The proliferation inhibition was “up to 80%”.

What about the “human IL-10 serum level, % of vehicle control” value (from here on “human IL-10 serum level, %”) (human IL-10; 2 hours after single oral dose, dose level not specified) of the same compound?
The value was “around 50%”.

And the “human IL-10 serum level, %” value (human IL-10; 4 hours after single dose, 10 mg/kg)?
Its value is “below 20%”.

What about the “human IL-10 serum level, %” value (human IL-10; 4 hours after single dose, 30 mg/kg) of the same compound?
Its value is less than 10%.

And the “human IL-10 serum level, %” value (human IL-10; 4 hours after single dose, 100 mg/kg)?
The value was less than 5%.

What about the “human IL-10 serum level, %” value (human IL-10; 16 hours after single dose, 10 mg/kg) of the same compound?
The value was 39%.

And the “human IL-10 serum level, %” value (human IL-10; 16 hours after single dose, 30 mg/kg)?
Its value is 23%.

And the “human IL-10 serum level, %” value (human IL-10; 16 hours after single dose, 100 mg/kg)?
Its value is 23%.

And the “human IL-10 serum level” value (human IL-10; 24 hours after single dose)?
The value was “normalize”.

And the “decrease in circulating human IL-10 cytokine serum levels” value (human IL-10; Compound B at 1, 3, 10, 30, or 100 mg/kg single dose, maximal at ≥ 10 mg/kg from 4-8 hours, baseline by 24 hours)?
The value was “Dose-and time-dependent”.

And the “serum interleukin (IL)-10 secretion” value (human IL-10; [2])?
Its value is “completely inhibited”.

What about the “human IL-10 serum level” value (human IL-10; up to 12 hours after single dose, 10, 30, 100 mg/kg) of the same compound?
The value was “remaining low”.

What about the “serum secretion of IL 12p70” value [1] of the same compound?
Its value is “significantly downregulated”.

And the “serum secretion of interleukin (IL)10” value [1]?
Its value is “significantly downregulated”.

What about the “serum secretion of tumor necrosis factor α (TNF α)” value [1] of the same compound?
Its value is “significantly downregulated”.
